experiment: in vitro; settings: human, hek293t cells

Q: For C=CC(=O)Nc1cnn(CCF)c1 [1-E05, N-[1-(2-fluoroethyl)-1H-pyrazol-4-yl]prop-2-enamide], which viability at 48 h, 25 µM is on record?
A: 78.3%

Q: With C=CC(=O)N1CCC(C(=O)Nc2cc(Cl)ccc2SCC)CC1 [1-E06, N-[5-chloro-2-(ethylsulfanyl)phenyl]-1-(prop-2-enoyl)piperidine-4-carboxamide] as the compound, how does the viability at 48 h, 25 µM read?
A: 111%

Q: With C=CC(=O)NCc1cccc2c1OCO2 [1-E07, N-[(1,3-dioxaindan-4-yl)methyl]prop-2-enamide] as the compound, how does the viability at 48 h, 25 µM read?
A: 69.1%

Q: With C=CC(=O)NC1C(=O)OCC1(C)C (stereo not drawn) [1-E08, N-(4,4-dimethyl-2-oxooxolan-3-yl)prop-2-enamide] as the compound, how does the viability at 48 h, 25 µM read?
A: 83.7%

Q: For C=CC(=O)N1CCC(C(=O)N2CCc3ccccc32)CC1 [1-E09, 1-[4-(2,3-dihydro-1H-indole-1-carbonyl)piperidin-1-yl]prop-2-en-1-one], which viability at 48 h, 25 µM is on record?
A: 68%

Q: For C=CC(=O)NC1CCC(F)(F)CC1F (stereo not drawn) [1-E11, N-(2,4,4-trifluorocyclohexyl)prop-2-enamide], which viability at 48 h, 25 µM is on record?
A: 69.4%

Q: For C=CC(=O)NC12CC3CC(CC(C3)C1)C2 [1-E12, N-(adamantan-1-yl)prop-2-enamide], which viability at 48 h, 25 µM is on record?
A: 56.7%

Q: Which viability at 48 h, 25 µM does the source give for C=CC(=O)Nc1c(C)cccc1SCC(=O)N(C)C [1-E13, N-(2-{[(dimethylcarbamoyl)methyl]sulfanyl}-6-methylphenyl)prop-2-enamide] here?
A: 78.8%

Q: For C=CC(=O)N1CCC(C(=O)NCc2ccoc2C)CC1 [1-E14, N-[(2-methylfuran-3-yl)methyl]-1-(prop-2-enoyl)piperidine-4-carboxamide], which viability at 48 h, 25 µM is on record?
A: 85.4%

Q: Which viability at 48 h, 25 µM does the source give for C=CC(=O)N1CCC(O)(c2ccccc2)CC1 [1-E15, 1-(4-hydroxy-4-phenylpiperidin-1-yl)prop-2-en-1-one] here?
A: 79.8%

Q: With C=CC(=O)Nc1cc(Cl)cc(C)c1OC [1-E16, N-(5-chloro-2-methoxy-3-methylphenyl)prop-2-enamide] as the compound, how does the viability at 48 h, 25 µM read?
A: 45.9%

Q: Which viability at 48 h, 25 µM does the source give for C=CC(=O)NCc1c(C(F)(F)F)coc1C [1-E17, N-{[2-methyl-4-(trifluoromethyl)furan-3-yl]methyl}prop-2-enamide] here?
A: 84.9%

Q: Which viability at 48 h, 25 µM does the source give for C=CC(=O)Nc1ccc(C(N)=O)nc1OC [1-E18, 6-methoxy-5-(prop-2-enamido)pyridine-2-carboxamide] here?
A: 69.6%

Q: With C=CC(=O)Nc1ccc2cc(N(C)C)ccc2c1 [1-E19, N-[6-(dimethylamino)naphthalen-2-yl]prop-2-enamide] as the compound, how does the viability at 48 h, 25 µM read?
A: 46.5%

Q: For C=CC(=O)N1CCC(C(=O)NCc2ccc(Cl)cc2Cl)CC1 [1-E20, N-[(2,4-dichlorophenyl)methyl]-1-(prop-2-enoyl)piperidine-4-carboxamide], which viability at 48 h, 25 µM is on record?
A: 95.8%

Q: With C=CC(=O)NCC(C)(C)C1CCCCC1 [1-E21, N-(2-cyclohexyl-2-methylpropyl)prop-2-enamide] as the compound, how does the viability at 48 h, 25 µM read?
A: 75.5%

Q: With C=CC(=O)Nc1cnn(-c2ccccc2C)c1C(F)F [1-E22, N-[5-(difluoromethyl)-1-(2-methylphenyl)-1H-pyrazol-4-yl]prop-2-enamide] as the compound, how does the viability at 48 h, 25 µM read?
A: 116%

Q: With C=CC(=O)N1CCN(CC(=O)NC)CC1 [1-F03, N-methyl-2-[4-(prop-2-enoyl)piperazin-1-yl]acetamide] as the compound, how does the viability at 48 h, 25 µM read?
A: 158%

Q: With C=CC(=O)N(Cc1cccc(Cl)c1F)C(C)C1CCOCC1 (stereo not drawn) [1-F04, N-[(3-chloro-2-fluorophenyl)methyl]-N-[1-(oxan-4-yl)ethyl]prop-2-enamide] as the compound, how does the viability at 48 h, 25 µM read?
A: 58.7%

Q: For C=CC(=O)Nc1cccc2c1CCN2C(C)=O [1-F05, N-(1-acetyl-2,3-dihydro-1H-indol-4-yl)prop-2-enamide], which viability at 48 h, 25 µM is on record?
A: 110%

Q: With C=CC(=O)NC1CCOC1C (stereo not drawn) [1-F06, N-(2-methyloxolan-3-yl)prop-2-enamide] as the compound, how does the viability at 48 h, 25 µM read?
A: 74.6%

Q: Which viability at 48 h, 25 µM does the source give for C=CC(=O)N(C)Cc1ccnn1CC [1-F07, N-[(1-ethyl-1H-pyrazol-5-yl)methyl]-N-methylprop-2-enamide] here?
A: 100%

Q: Which viability at 48 h, 25 µM does the source give for C=CC(=O)Nc1cc(SCc2ccccc2C)ncn1 [1-F08, N-(6-{[(2-methylphenyl)methyl]sulfanyl}pyrimidin-4-yl)prop-2-enamide] here?
A: 0.816%

Q: For C=CC(=O)N(Cc1c(C)cccc1OC)C1CCCCNC1=O (stereo not drawn) [1-F09, N-[(2-methoxy-6-methylphenyl)methyl]-N-(2-oxoazepan-3-yl)prop-2-enamide], which viability at 48 h, 25 µM is on record?
A: 85.8%

Q: For C=CC(=O)NC(C)Cn1nc(C)cc1C (stereo not drawn) [1-F10, N-[1-(3,5-dimethyl-1H-pyrazol-1-yl)propan-2-yl]prop-2-enamide], which viability at 48 h, 25 µM is on record?
A: 55.7%

Q: Which viability at 48 h, 25 µM does the source give for C=CC(=O)N(Cc1nccc2c1CCCC2)C1CCCC(OC)C1 (stereo not drawn) [1-F11, N-(3-methoxycyclohexyl)-N-[(5,6,7,8-tetrahydroisoquinolin-1-yl)methyl]prop-2-enamide] here?
A: 100%

Q: Which viability at 48 h, 25 µM does the source give for C=CC(=O)NCCC(=O)N1CCC2(CC(=O)c3ccccc3O2)C1 (stereo not drawn) [1-F12, N-(3-oxo-3-{4-oxo-3,4-dihydrospiro[1-benzopyran-2,3'-pyrrolidin]-1'-yl}propyl)prop-2-enamide] here?
A: 82.1%

Q: For C=CC(=O)N(Cc1cc(F)cc(Cl)c1)C(C)C1CCOCC1 (stereo not drawn) [1-F13, N-[(3-chloro-5-fluorophenyl)methyl]-N-[1-(oxan-4-yl)ethyl]prop-2-enamide], which viability at 48 h, 25 µM is on record?
A: 110%

Q: With C=CC(=O)Nc1cn(C)nc1OC(C)C [1-F14, N-[1-methyl-3-(propan-2-yloxy)-1H-pyrazol-4-yl]prop-2-enamide] as the compound, how does the viability at 48 h, 25 µM read?
A: 71.2%

Q: Which viability at 48 h, 25 µM does the source give for C=CC(=O)N(Cc1nonc1C)CC1C(C)=CCCC1C (stereo not drawn) [1-F15, N-[(2,6-dimethylcyclohex-2-en-1-yl)methyl]-N-[(4-methyl-1,2,5-oxadiazol-3-yl)methyl]prop-2-enamide] here?
A: 108%

Q: Which viability at 48 h, 25 µM does the source give for C=CC(=O)NC1CCCCC12CCCC2 (stereo not drawn) [1-F16, N-{spiro[4.5]decan-6-yl}prop-2-enamide] here?
A: 77.6%

Q: With C=CC(=O)NCC12CC3CC(CC(C3)C1)C2 [1-F17, N-[(adamantan-1-yl)methyl]prop-2-enamide] as the compound, how does the viability at 48 h, 25 µM read?
A: 110%

Q: For C=CC(=O)NC1(c2cc(C)no2)CCOCC1 [1-F18, N-[4-(3-methyl-1,2-oxazol-5-yl)oxan-4-yl]prop-2-enamide], which viability at 48 h, 25 µM is on record?
A: 68.5%

Q: With C=CC(=O)N1CCCC1c1c(C)nn(CC(C)C)c1Cl (stereo not drawn) [1-F19, 1-{2-[5-chloro-3-methyl-1-(2-methylpropyl)-1H-pyrazol-4-yl]pyrrolidin-1-yl}prop-2-en-1-one] as the compound, how does the viability at 48 h, 25 µM read?
A: 119%

Q: Which viability at 48 h, 25 µM does the source give for C=CC(=O)N1CCOC(Cn2cncn2)C1 (stereo not drawn) [1-F20, 1-{2-[(1H-1,2,4-triazol-1-yl)methyl]morpholin-4-yl}prop-2-en-1-one] here?
A: 85.3%

Q: With C=CC(=O)Nc1sc2c(c1C(N)=O)CCCCC2 [1-F21, 2-(prop-2-enamido)-4H,5H,6H,7H,8H-cyclohepta[b]thiophene-3-carboxamide] as the compound, how does the viability at 48 h, 25 µM read?
A: 113%

Q: Which viability at 48 h, 25 µM does the source give for C=CC(=O)NCC1(C)CCC(C)(C)CC1 [1-F22, N-[(1,4,4-trimethylcyclohexyl)methyl]prop-2-enamide] here?
A: 83.2%

Q: Which viability at 48 h, 25 µM does the source give for C=CC(=O)N1CSCC1C(=O)N(C)C (stereo not drawn) [1-G03, N,N-dimethyl-3-(prop-2-enoyl)-1,3-thiazolidine-4-carboxamide] here?
A: 75.4%

Q: With C=CC(=O)Nc1ccccc1Sc1nncs1 [1-G04, N-[2-(1,3,4-thiadiazol-2-ylsulfanyl)phenyl]prop-2-enamide] as the compound, how does the viability at 48 h, 25 µM read?
A: 32.3%

Q: With C=CC(=O)NC(c1ccccc1)C1CCC1 (stereo not drawn) [1-G05, N-[cyclobutyl(phenyl)methyl]prop-2-enamide] as the compound, how does the viability at 48 h, 25 µM read?
A: 76.5%

Q: For C=CC(=O)Nc1ccc(O)c(C(=O)O)c1 [1-G06, 2-hydroxy-5-(prop-2-enamido)benzoic acid], which viability at 48 h, 25 µM is on record?
A: 70.3%

Q: With C=CC(=O)NCc1nncn1-c1ccccc1 [1-G07, N-[(4-phenyl-4H-1,2,4-triazol-3-yl)methyl]prop-2-enamide] as the compound, how does the viability at 48 h, 25 µM read?
A: 77.3%

Q: With C=CC(=O)N1CCCC1 [1-G08, 1-(pyrrolidin-1-yl)prop-2-en-1-one] as the compound, how does the viability at 48 h, 25 µM read?
A: 70.2%

Q: Which viability at 48 h, 25 µM does the source give for C=CC(=O)N(Cc1cn(C2CCC2)nn1)c1ccc(F)cc1 [1-G09, N-[(1-cyclobutyl-1H-1,2,3-triazol-4-yl)methyl]-N-(4-fluorophenyl)prop-2-enamide] here?
A: 37.6%

Q: Which viability at 48 h, 25 µM does the source give for C=CC(=O)Nc1cccc2ccccc12 [1-G10, N-(naphthalen-1-yl)prop-2-enamide] here?
A: 53.4%

Q: With C=CC(=O)Nc1nc2cc(C(F)(F)F)ccc2n1Cc1ccco1 [1-G11, N-{1-[(furan-2-yl)methyl]-5-(trifluoromethyl)-1H-1,3-benzodiazol-2-yl}prop-2-enamide] as the compound, how does the viability at 48 h, 25 µM read?
A: 72.5%

Q: With C=CC(=O)N1CCCC(C(=O)O)C1 (stereo not drawn) [1-G12, 1-(prop-2-enoyl)piperidine-3-carboxylic acid] as the compound, how does the viability at 48 h, 25 µM read?
A: 60.4%

Q: For C=CC(=O)Nc1ccc2c(c1)N(C)CC2 [1-G13, N-(1-methyl-2,3-dihydro-1H-indol-6-yl)prop-2-enamide], which viability at 48 h, 25 µM is on record?
A: 67.7%

Q: Which viability at 48 h, 25 µM does the source give for C=CC(=O)Nc1cccc(C(=O)C(F)F)c1 [1-G14, N-[3-(2,2-difluoroacetyl)phenyl]prop-2-enamide] here?
A: 50.4%

Q: With C=CC(=O)N1CCN(S(C)(=O)=O)[C@H](C)C1 [1-G15, 1-[(3R)-4-methanesulfonyl-3-methylpiperazin-1-yl]prop-2-en-1-one] as the compound, how does the viability at 48 h, 25 µM read?
A: 101%

Q: With C=CC(=O)NCC1(C)CCS(=O)(=O)CC1 [1-G16, N-[(4-methyl-1,1-dioxo-1lambda6-thian-4-yl)methyl]prop-2-enamide] as the compound, how does the viability at 48 h, 25 µM read?
A: 83.1%

Q: For C=CC(=O)Nc1cnc(C2CCCC2)nc1 [1-G17, N-(2-cyclopentylpyrimidin-5-yl)prop-2-enamide], which viability at 48 h, 25 µM is on record?
A: 33%

Q: Which viability at 48 h, 25 µM does the source give for C=CC(=O)NCc1nc2c(s1)CCCC2 [1-G18, N-[(4,5,6,7-tetrahydro-1,3-benzothiazol-2-yl)methyl]prop-2-enamide] here?
A: 95.8%

Q: Which viability at 48 h, 25 µM does the source give for C=CC(=O)Nc1cnn2cc(C)cnc12 [1-G19, N-{6-methylpyrazolo[1,5-a]pyrimidin-3-yl}prop-2-enamide] here?
A: 96.4%

Q: For C=CC(=O)Nc1ccc2c(c1)OCCCO2 [1-G20, N-(3,4-dihydro-2H-1,5-benzodioxepin-7-yl)prop-2-enamide], which viability at 48 h, 25 µM is on record?
A: 115%

Q: With C=CC(=O)NCc1cn(C)c2ccccc12 [1-G21, N-[(1-methyl-1H-indol-3-yl)methyl]prop-2-enamide] as the compound, how does the viability at 48 h, 25 µM read?
A: 107%

Q: With C=CC(=O)NC1CCc2nc(CC)nn2C1 (stereo not drawn) [1-G22, N-{2-ethyl-5H,6H,7H,8H-[1,2,4]triazolo[1,5-a]pyridin-6-yl}prop-2-enamide] as the compound, how does the viability at 48 h, 25 µM read?
A: 147%

Reference: article PMC11995724, “Antibiotic target discovery by integrated phenotypic and activity-based profiling of electrophilic fragments” (Cell chemical biology, 2025)
